Values quoted from earlier work, collected in US11382901B2, “Tropicamide-based ophthalmic formulations” (FOR HEALTH PHARMA S.R.L., priority 2017, dated 2022).

Tests used:
[1] = tested on: RAW 264.7 cells (murine macrophage-like)
[2] = tested on: NIH/3T3 cells (murine fibroblasts)

tyloxapol
in vitro toxicity [1]: considerable in vitro toxicity
in vitro toxicity [2]: considerable in vitro toxicity
